Data set [1] in a line: Solubility in 1% SDS in water by LC-UV. To be noted: after 24 hours rotation, ambient temperature. It counts as physicochemical. Here is the method:
The solubility was determined in triplicate by use of LC-UV chromatography. […] The substance was rotated in the specific medium at ambient temperature for 24 hours, followed by filtering the supernatant using a hydrophilic PVDF (Millipore Corp.) 0.22 μm filter. The samples were then diluted with a 1:1 mixture of mobile phase A and B (see below) and analyzed using an Xterra™ MS C18, 50×2.1 mm column with UV detection at 288 nm. The mobile phase consisted of acetonitrile, water and trifluoroacetic acid, 5:95:0.1 (A) and 99:1:0.1 (B).
Solubility determinations were performed in 1% sodium dodecyl sulfate (SDS) in water.

Data set [2] deals with insulin-like growth factor-1 receptor (IGF-1R) (Homo sapiens, UniProt P08069). The following applies: disclosed in WO 02/102804; cited from earlier work.
Sequence of insulin-like growth factor-1 receptor (IGF-1R) (P08069 31-1367, species assumed): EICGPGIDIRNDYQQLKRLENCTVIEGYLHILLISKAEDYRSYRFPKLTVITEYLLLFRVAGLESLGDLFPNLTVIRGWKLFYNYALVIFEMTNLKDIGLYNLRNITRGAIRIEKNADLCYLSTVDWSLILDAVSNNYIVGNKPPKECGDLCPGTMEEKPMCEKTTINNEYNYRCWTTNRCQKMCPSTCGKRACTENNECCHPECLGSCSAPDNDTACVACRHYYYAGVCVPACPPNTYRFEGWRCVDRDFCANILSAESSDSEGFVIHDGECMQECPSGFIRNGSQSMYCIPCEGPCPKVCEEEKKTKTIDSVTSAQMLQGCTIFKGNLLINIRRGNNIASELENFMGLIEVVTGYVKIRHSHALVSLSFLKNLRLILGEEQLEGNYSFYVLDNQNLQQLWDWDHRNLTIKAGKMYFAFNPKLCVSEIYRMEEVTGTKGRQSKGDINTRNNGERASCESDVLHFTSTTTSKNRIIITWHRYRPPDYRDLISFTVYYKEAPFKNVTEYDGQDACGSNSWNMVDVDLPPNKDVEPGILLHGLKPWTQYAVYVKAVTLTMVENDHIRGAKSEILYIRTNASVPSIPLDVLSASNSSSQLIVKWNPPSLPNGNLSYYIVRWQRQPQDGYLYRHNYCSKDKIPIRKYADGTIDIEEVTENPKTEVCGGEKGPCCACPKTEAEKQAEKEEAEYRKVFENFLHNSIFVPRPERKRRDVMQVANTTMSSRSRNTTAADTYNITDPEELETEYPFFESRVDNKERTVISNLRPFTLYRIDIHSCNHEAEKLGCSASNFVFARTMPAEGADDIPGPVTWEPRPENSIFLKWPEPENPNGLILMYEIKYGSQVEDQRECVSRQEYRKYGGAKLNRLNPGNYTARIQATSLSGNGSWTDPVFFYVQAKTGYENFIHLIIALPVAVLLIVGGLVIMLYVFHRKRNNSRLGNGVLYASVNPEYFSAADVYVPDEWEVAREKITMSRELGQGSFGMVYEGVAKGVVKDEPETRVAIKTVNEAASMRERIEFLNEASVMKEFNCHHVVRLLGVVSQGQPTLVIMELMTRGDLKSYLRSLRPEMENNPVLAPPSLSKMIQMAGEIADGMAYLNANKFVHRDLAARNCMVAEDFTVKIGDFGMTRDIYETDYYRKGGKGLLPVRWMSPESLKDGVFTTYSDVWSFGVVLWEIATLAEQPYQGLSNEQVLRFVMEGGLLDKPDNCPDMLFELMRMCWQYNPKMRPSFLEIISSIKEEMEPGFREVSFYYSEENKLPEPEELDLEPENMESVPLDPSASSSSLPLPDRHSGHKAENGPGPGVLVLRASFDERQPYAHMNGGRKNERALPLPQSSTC
Data set [3] in a line: Three month solid state stability study (appearance, XRPD, TGA). It counts as physicochemical. To be noted: for TGA mass loss from ambient temperature to 150° C.: after 3 months storage at 40° C./75% RH; for Change in appearance: open containers. Here is the method:
Analysis was made by using X-Ray Powder Diffration (XRPD) and Thermogravimetry (TGA).
Experiments were run as described above using Cu Kα1 radiation (45 kV and 40 mA) at ambient temperature and humidity. Scans were run in continous scan mode in the range 2-50° 2θ using automatic divergence and antiscatter slits with observed length of 10 mm, a step size of 0.013° 2θ and a common counting time of 97.920 seconds.
Thermogravimetry (TGA) was performed on a Seiko TG/DTA 6200 and open 90 μl Pt-pans with ca 10 to 20 mg of sample and a nitrogen flow of 200 mL/min. The temperature program was ambient (20° C.) to 400° C. with a heating rate of 10° C./min. A blank was subtracted and the TG data was normalized with respect to sample size and analyzed using the Muse Standard Analysis software, version 6.1 U.

The nature of data set [4]: Powder dissolution profiling (intrinsic dissolution rate and apparent solubility) in PhB 6.5 and FeSSIF pH 6.5. On the procedure:
Phosphate buffer pH 6.5 (PhB 6.5) was prepared according to a protocol by Galia and co-workers (Galia, E., et al. Evaluation of various dissolution media for predicting in vivo performance of class I and II drugs. Pharm Res 15, pp. 698-705 (1998)). Briefly, 1000 mL of […] Na2HPO4 buffer pH 6.5 was prepared by dissolving 3.95 g Na2HPO4xH2O, 6.19 g NaCl and 0.42 g NaOH in a volumetric flask by adding purified water. The pH was adjusted to pH to 6.5 by titration with 0.5 M NaOH and the volume was adjusted to 1000 mL with purified water. This buffer was sterile filtered and thereafter stored in refrigerator. Fed state simulated intestinal fluid (FeSSIF pH 6.5) was prepared fresh on the day of the experiment by dissolving 1.12 g of Na-taurocholate/lecithin powder (ePhares, Switzerland) in 100 mL PhB ((Galia, E., et al. Evaluation of various dissolution media for predicting in vivo performance of class I and II drugs. Pharm Res 15, pp. 698-705 (1998)). The media was stirred and preheated to 37±1° C. resulting in clear solution of pH 6.5 which contained a mixed micelle system of 15 mM taurocholate and 3.75 mM lecithin.
Dissolution rate and apparent solubility was measured with the pDISS Profiler™ (pION INC, MA, USA) from 0.3-1.3 mg compound weighed into the vial to which the preheated (37° C.) dissolution medium was added. […] Each UV probe was calibrated with its own standard curve prior to the experiment. The obtained results were analysed with the software accompanying the pDISS equipment.
The detailed procedure of the powder dissolution experiments, including the theoretical background, can be found in Avdeef, A., Tsinman, K., Tsinman, O., Sun, N. & Voloboy, D. Miniaturization of powder dissolution measurement and estimation of particle size. Chem Biodivers 6, 1796-1811 (2009); in Fagerberg, J. H., et al. Dissolution Rate and Apparent Solubility of Poorly Soluble Drugs in Biorelevant Dissolution Media. Mol Pharm 7, 1419-1430, (2010); and in Tsinman, K., Avdeef, A., Tsinman, O. & Voloboy, D. Powder dissolution method for estimating rotating disk intrinsic dissolution rates of low solubility drugs. Pharm Res 26, 2093-2100 (2009).

Data set [5] can be described thus: Physical stability of polymorphs stirred in water, sonicated or mortared (XRPD). The following applies: for Solid form by XRPD after stirring in water: slurry in water rotated for 24 hours. Type of data set: physicochemical. Here is the method: The slurry was centrifuged and the supernatant was removed. The solid was dried under vacuum overnight and the sample was thereafter, stored at ambient conditions.
The slurry was centrifuged 3000 rpm for 10 minutes and the supernatant was removed. The solid was freezed (in a freezer) and freeze-dried overnight. The sample was kept at ambient conditions for 2 hours before the XRPD analysis.

The nature of data set [6]: Dynamic Vapour Sorption (DVS) hygroscopicity. Type of data set: physicochemical. The following applies: from 0 to 90% RH, 25° C. Here is the method:
The hygroscopicity of the samples was studied by Dynamic Vapor Sorption Gravimetry (DVS) using a DVS-1 (Surface Measurement Ltd., UK).
Each sample was run in three consecutive full cycles. The condition to proceed to the next level of RH was a weight increase below or equal to 0.001% within 15 minutes, with a maximum total time per step of 24 hours. The temperature was kept at 25° C.

Data set [7] is described as follows: Slurry experiments with mixture of polymorphs B and C in saturated picropodophyllin solutions. It counts as physicochemical. Here is the method:
The solid was filtered off and the saturated picropodophyllin solutions were used in the slurry experiment below.
The solid was filtered off using a glass filter and stored at ambient conditions for 2 hours.
The solid was filtered off using a glass filter and left on the glass filter for 30 minutes.
The slurry was slowly stirred overnight. The slurry was removed from the oil bath and immediately filtered through a glass filter. The solid was left on the glass filter for 30 minutes.
The slurry was slowly stirred for 4 hours. The slurry was removed from the oil bath and immediately filtered through a glass filter. The solid was left on the glass filter for 30 minutes.

A short description of data set [8]: Thermogravimetric analysis (TGA). To be noted: initial analysis. Type of data set: physicochemical. Here is the method: Thermogravimetric analysis (TGA) was performed on a Seiko TG/DTA 6200 and open 90 μl Pt-pans with ca 10 to 25 mg of sample and a nitrogen flow of 200 ml/min. The temperature program was ambient (20° C.) to 400° C. with a heating rate of 10° C./min. A blank was subtracted and the TG data was normalized with respect to sample size and analyzed using the Muse Standard Analysis software, version 6.1 U (Seiko, Japan).

Setting [9] is: listed as picropodophyllin polymorph B.
Where [10] appears, read: listed as picropodophyllin polymorph C.

As a reminder, the solubility is how much of the substance goes into solution per volume.

In brackets after ≈: the same amount, converted by molar mass.

Turning to `COc1cc(C2c3cc4c(cc3C(O)[C@H]3COC(=O)[C@@H]23)OCO4)cc(OC)c1OC` (stereo partly drawn) [picropodophyllin monohydrate, reference compound], the “Solubility in 1% SDS in water” value in data set [1] (monohydrate) came to 0.2 mg/mL.

As for `COc1cc([C@@H]2c3cc4c(cc3[C@H](O)[C@H]3COC(=O)[C@@H]23)OCO4)cc(OC)c1OC` [picropodophyllin], in data set [2], the “Inhibition of IGF-1R” value is “specific and potent inhibitor”.

On to `COc1cc([C@@H]2c3cc4c(cc3[C@H](O)[C@H]3COC(=O)[C@@H]23)OCO4)cc(OC)c1OC` [polymorph B, picropodophyllin], for which the “Solid-state instability (XRPD, TGA)” value in data set [3] (3 months storage at 25° C./60% RH) and in data set [3] (3 months storage at 40° C./75% RH) was “does not show any sign(s) of solid-state instability” each time. For the same molecule, the “TGA mass loss from ambient temperature to 150° C.” value in data set [3] (setting [9]) and in data set [8] (setting [9]) was 0.0±0.1% throughout. Besides, the Change in appearance result in data set [3] (3 months at 25° C./60% RH) and in data set [3] (3 months at 40° C./75% RH) was “no change in appearance” throughout. Further, the “Apparent Solubility assay 1” value in data set [4] (FeSSIF pH 6.5, 37° C., assay time polymorph B 16 hours, polymorph C 1.3 hours, triplicate) was 25.51 ± 0.51 µg/mL; in data set [4] (PhB 6.5, 37° C., assay time polymorph B 19 hours, polymorph C […], mean ± SD, triplicate), 11.72 ± 0.22 µg/mL. Further, the “Solubility increase in FeSSIF as compared to PhB 6.5” value in data set [4] (FeSSIF pH 6.5 vs PhB 6.5) came to 2.2 fold. In addition, the “Solid form by XRPD after stirring in water” value in data set [5] was “converted to a mixture of mainly picropodophyllin monohydrate and some picropodophyllin polymorph B”. Further, the DVS mass increase in data set [6] was 0.2%. The “Solid form obtained from slurry of polymorphs B and C” value in data set [7] (acetone saturated with picropodophyllin, five days, ambient temperature) is listed as “converted to polymorph C”; in data set [7] (ethyl acetate saturated with picropodophyllin, five days, ambient temperature) it was “converted to polymorph C”; in data set [7] (mesitylene saturated with picropodophyllin, five days, ambient temperature) it was “converted to polymorph C”; in data set [7] (mesitylene, 70° C., overnight), “converted to polymorph C”; in data set [7] (mesitylene, 120° C., 4 hours) it was “converted to polymorph C”. The molecule further gave a solubility at 24 h in data set [1] (1% SDS in water, aqueous with cosolvent or surfactant or cyclodextrin, thermodynamic from solid) of 700 µg/mL (≈ 1690 µM).

In the case of `COc1cc([C@@H]2c3cc4c(cc3[C@H](O)[C@H]3COC(=O)[C@@H]23)OCO4)cc(OC)c1OC` [polymorph C, picropodophyllin], the “TGA mass loss from ambient temperature to 150° C.” value in data set [3] (setting [10]) and in data set [8] (setting [10]) was 0.1±0.1% in each case. The solubility was found to be 5.85 ± 0.25 µg/mL in data set [4] (37 °C, pH 6.5, aqueous buffer, thermodynamic from solid, Apparent Solubility Assay 1 + 2, PhB 6.5, 37° C., assays 1 and 2 combined, mean ± SD); 5.88 ± 0.09 µg/mL (≈ 14.2 µM) in data set [4] (37 °C, pH 6.5, aqueous buffer, thermodynamic from solid, Apparent Solubility assay 1, PhB 6.5, 37° C., assay time polymorph B 19 hours, polymorph C […], mean ± SD, triplicate); 12.6 ± 0.8 µg/mL in data set [4] (37 °C, pH 6.5, fessif, thermodynamic from solid, Apparent Solubility Assay 1 + 2, FeSSIF pH 6.5, 37° C., assays 1 and 2 combined). Further, the solubility at 50 min in data set [4] (37 °C, pH 6.5, aqueous buffer, thermodynamic from solid, Apparent Solubility assay 2, PhB 6.5, 37° C., assay time 29 hours (value obtained after 50 minutes), mean ± SD, triplicate) is 5.81 ± 0.38 µg/mL (≈ 14 µM). Also, the solubility at 25 h in data set [4] (37 °C, pH 6.5, fessif, thermodynamic from solid, Apparent Solubility assay 2, FeSSIF pH 6.5, 37° C., assay time 25 hours, triplicate) amounted to 12.2 ± 1.07 µg/mL (≈ 29.5 µM). The “Solid form by XRPD after sonication” value in data set [5] (in purified water, cooled on ice, sonicated for 5 minutes) is on record as “no phase change occurred”. Further, the “Solid form by XRPD after mortaring” value in data set [5] (mortared for 5 minutes in agate mortar) is reported as “no phase change occurred”. In addition, the “Solid form by XRPD after stirring in water” value in data set [5] (setting [10]) is recorded as “no phase change occurred”. Further, the “Solubility in 1% SDS in water” value in data set [1] (setting [10]) is 0.4 mg/mL (≈ 965 µM).

The values above are taken from patent US9314525B2 (Axelar AB, priority 2010, dated 2016).
